US20230338391A1, “TREATMENT FOR DEPRESSION” (TAKEDA PHARMACEUTICAL COMPANY LIMITED, priority 2020, published 2023)
Like-named read-outs stand apart in the source and are kept apart here.

Test: Phase 1 SRD/multiple-rising dose (MRD, Part 2) plasma PK in healthy subjects
Format: in vivo, human
Details: for Vd/F: read-out: Vz/F
Procedure: The study was designed to assess the safety, tolerability, PK, and PD of COMPOUND A. A total of 88 subjects were enrolled in 6 SRD and 5 SRD/MRD cohorts (n=8 per cohort). The study was composed of 2 parts.
In Part 2 of the study (SRD/MRD cohorts), a single oral tablet dose of COMPOUND A (0.3, 1, 3, 6, or 9 mg) or matching placebo was administered on Day 1 followed by safety, tolerability, PK, and PD assessments. Study drug (at the same dose level) was then administered once daily (QD) for 13 days, on […]. Each cohort of 8 subjects (6 active: 2 placebo) were administered study drug sequentially to ensure adequate safety and tolerability before administering the next dose level. Neither sentinel nor staggered dosing was used for the SRD/MRD cohorts. Subjects were confined in the study unit for 21 days, from Check-in on Day −1 until 72 hours after the last dose of study drug.
For all cohorts in Parts 1 and 2, serial PK blood samples were collected pre- and post-dose on Day 1 to measure plasma concentrations of COMPOUND A and its metabolites. For all SRD/MRD cohorts in Part 2, urine samples were collected pre- and post-dose on Day 1 and post-dose on Day 18 to measure concentrations of COMPOUND A and its metabolites.
For Part 1 of the study, all 36 subjects who received COMPOUND A were included in the PK set. For Part 2 of the study, all 30 subjects who received COMPOUND A were included in the PK set.
Referring now to FIG. 3, mean plasma concentration-time profiles (linear and semilog scales) of COMPOUND A were determined on Day 18 following oral administration of COMPOUND A QD for 13 days.

[1] = 0.3 mg QD cohort, Study Day 1, mean
[2] = 1 mg QD cohort, Study Day 1, mean
[3] = 3 mg QD cohort, Study Day 1, mean
[4] = 6 mg QD cohort, Study Day 1, mean
[5] = 9 mg QD cohort, Study Day 1, mean
[6] = both sexes, human, plasma, oral, 0.3 mg QD cohort, Study Day 1, mean
[7] = both sexes, human, plasma, oral, 1 mg QD cohort, Study Day 1, mean
[8] = both sexes, human, plasma, oral, 3 mg QD cohort, Study Day 1, mean
[9] = both sexes, human, plasma, oral, 6 mg QD cohort, Study Day 1, mean
[10] = both sexes, human, plasma, oral, 9 mg QD cohort, Study Day 1, mean

With `CC1=CN2CCS(=O)(=O)N=C2C(c2ccc(OC3CCCCC3)cc2)=N1` [COMPOUND A, 9-[4-(Cyclohexyloxy)phenyl]-7-methyl-3,4-dihydropyrazino[2,1-c][1,2,4]thiadiazine 2,2-dioxide] the CL/F [1] was 2.38 L/h, the t1/2z [1] was 37.1 h and the “Cav, ss” value (0.3 mg QD, Study Day 18, mean) was 6.27 ng/mL. The CL/F [2] was 2.35 L/h, the t1/2z [2] was 42.4 h and the “Cav, ss” value (1 mg QD, Study Day 18, mean) was 20.9 ng/mL. For the same compound, the CL/F [3] was 1.81 L/h, the t1/2z [3] was 52.6 h and the “Cav, ss” value (3 mg QD, Study Day 18, mean) was 81.1 ng/mL. For the same compound, the CL/F [4] was 3.25 L/h, the t1/2z [4] was 36.0 h and the “Cav, ss” value (6 mg QD, Study Day 18, mean, n = 5) was 122 ng/mL. The CL/F [5] was 2.17 L/h, the t1/2z [5] was 49.9 h and the “Cav, ss” value (9 mg QD, Study Day 18, mean) was 192 ng/mL. The AUC (both sexes, human, plasma, oral, 0.3 mg, 0.3 mg QD cohort, Study Day 1, mean, read-out: AUC24) was 48 ng·h/mL, the Cmax (both sexes, human, plasma, oral, 0.3 mg, 0.3 mg QD cohort, Study Day 1, mean, read-out: Cmax) was 2.93 ng/mL and the Tmax (both sexes, human, plasma, oral, 0.3 mg, 0.3 mg QD cohort, Study Day 1, median, read-out: tmax) was 1.25 h. It also gave an AUC (both sexes, human, plasma, oral, 0.3 mg, 0.3 mg QD, Study Day 6, mean, read-out: AUC24) of 51.8 ng·h/mL, a Cmax (both sexes, human, plasma, oral, 0.3 mg, 0.3 mg QD, Study Day 6, mean, read-out: Cmax) of 3.07 ng/mL and a Tmax (both sexes, human, plasma, oral, 0.3 mg, 0.3 mg QD, Study Day 6, median, read-out: tmax) of 1.5 h. For the same compound, the AUC (both sexes, human, plasma, oral, 0.3 mg, 0.3 mg QD, Study Day 18, mean, read-out: AUCτ) was 151 ng·h/mL, the Cmax (both sexes, human, plasma, oral, 0.3 mg, 0.3 mg QD, Study Day 18, mean, read-out: Cmax, ss) was 7.87 ng/mL and the Tmax (both sexes, human, plasma, oral, 0.3 mg, 0.3 mg QD, Study Day 18, median, read-out: tmax) was 2.5 h. It also gave an AUC (both sexes, human, plasma, oral, 1 mg, 1 mg QD cohort, Study Day 1, mean, read-out: AUC24) of 138 ng·h/mL, a Cmax (both sexes, human, plasma, oral, 1 mg, 1 mg QD cohort, Study Day 1, mean, read-out: Cmax) of 7.82 ng/mL and a Tmax (both sexes, human, plasma, oral, 1 mg, 1 mg QD cohort, Study Day 1, median, read-out: tmax) of 4 h. It also gave an AUC (both sexes, human, plasma, oral, 1 mg, 1 mg QD, Study Day 6, mean, read-out: AUC24) of 162 ng·h/mL, a Cmax (both sexes, human, plasma, oral, 1 mg, 1 mg QD, Study Day 6, mean, read-out: Cmax) of 10 ng/mL and a Tmax (both sexes, human, plasma, oral, 1 mg, 1 mg QD, Study Day 6, median, read-out: tmax) of 1 h. For the same compound, the AUC (both sexes, human, plasma, oral, 1 mg, 1 mg QD, Study Day 18, mean, read-out: AUCτ) was 503 ng·h/mL, the Cmax (both sexes, human, plasma, oral, 1 mg, 1 mg QD, Study Day 18, mean, read-out: Cmax, ss) was 24.9 ng/mL and the Tmax (both sexes, human, plasma, oral, 1 mg, 1 mg QD, Study Day 18, median, read-out: tmax) was 4.5 h. It also gave an AUC (both sexes, human, plasma, oral, 3 mg, 3 mg QD cohort, Study Day 1, mean, read-out: AUC24) of 480 ng·h/mL, a Cmax (both sexes, human, plasma, oral, 3 mg, 3 mg QD cohort, Study Day 1, mean, read-out: Cmax) of 28.7 ng/mL and a Tmax (both sexes, human, plasma, oral, 3 mg, 3 mg QD cohort, Study Day 1, median, read-out: tmax) of 1.5 h. The AUC (both sexes, human, plasma, oral, 3 mg, 3 mg QD, Study Day 6, mean, read-out: AUC24) was 594 ng·h/mL, the Cmax (both sexes, human, plasma, oral, 3 mg, 3 mg QD, Study Day 6, mean, read-out: Cmax) was 34.7 ng/mL and the Tmax (both sexes, human, plasma, oral, 3 mg, 3 mg QD, Study Day 6, median, read-out: tmax) was 1.54 h. The AUC (both sexes, human, plasma, oral, 3 mg, 3 mg QD, Study Day 18, mean, read-out: AUCτ) was 1950 ng·h/mL, the Cmax (both sexes, human, plasma, oral, 3 mg, 3 mg QD, Study Day 18, mean, read-out: Cmax, ss) was 100 ng/mL and the Tmax (both sexes, human, plasma, oral, 3 mg, 3 mg QD, Study Day 18, median, read-out: tmax) was 4 h. It also gave an AUC (both sexes, human, plasma, oral, 6 mg, 6 mg QD cohort, Study Day 1, mean, read-out: AUC24) of 767 ng·h/mL, a Cmax (both sexes, human, plasma, oral, 6 mg, 6 mg QD cohort, Study Day 1, mean, read-out: Cmax) of 42 ng/mL and a Tmax (both sexes, human, plasma, oral, 6 mg, 6 mg QD cohort, Study Day 1, median, read-out: tmax) of 5 h. For the same compound, the AUC (both sexes, human, plasma, oral, 6 mg, 6 mg QD, Study Day 6, mean, n = 5, read-out: AUC24) was 784 ng·h/mL, the Cmax (both sexes, human, plasma, oral, 6 mg, 6 mg QD, Study Day 6, mean, read-out: Cmax) was 50.2 ng/mL and the Tmax (both sexes, human, plasma, oral, 6 mg, 6 mg QD, Study Day 6, median, read-out: tmax) was 5 h. It also gave an AUC (both sexes, human, plasma, oral, 6 mg, 6 mg QD, Study Day 18, mean, n = 5, read-out: AUCτ) of 2930 ng·h/mL, a Cmax (both sexes, human, plasma, oral, 6 mg, 6 mg QD, Study Day 18, mean, n = 5, read-out: Cmax, ss) of 148 ng/mL and a Tmax (both sexes, human, plasma, oral, 6 mg, 6 mg QD, Study Day 18, median, n = 5, read-out: tmax) of 3.05 h. It also gave an AUC (both sexes, human, plasma, oral, 9 mg, 9 mg QD cohort, Study Day 1, mean, read-out: AUC24) of 1410 ng·h/mL, a Cmax (both sexes, human, plasma, oral, 9 mg, 9 mg QD cohort, Study Day 1, mean, read-out: Cmax) of 78.4 ng/mL and a Tmax (both sexes, human, plasma, oral, 9 mg, 9 mg QD cohort, Study Day 1, median, read-out: tmax) of 4.51 h. For the same compound, the AUC (both sexes, human, plasma, oral, 9 mg, 9 mg QD, Study Day 6, mean, read-out: AUC24) was 1570 ng·h/mL, the Cmax (both sexes, human, plasma, oral, 9 mg, 9 mg QD, Study Day 6, mean, read-out: Cmax) was 82 ng/mL and the Tmax (both sexes, human, plasma, oral, 9 mg, 9 mg QD, Study Day 6, median, read-out: tmax) was 4 h. The AUC (both sexes, human, plasma, oral, 9 mg, 9 mg QD, Study Day 18, mean, read-out: AUCτ) was 4600 ng·h/mL, the Cmax (both sexes, human, plasma, oral, 9 mg, 9 mg QD, Study Day 18, mean, read-out: Cmax, ss) was 243 ng/mL and the Tmax (both sexes, human, plasma, oral, 9 mg, 9 mg QD, Study Day 18, median, read-out: tmax) was 3 h. It also gave an AUC (both sexes, human, plasma, oral, Day 18, range over the 0.3 to 9 mg QD dose range, read-out: mean AUCτ) of 151 to 4600 ng·h/mL, a concentration at 18 day (both sexes, human, plasma, oral, Day 18, range over the 0.3 to 9 mg QD dose range, read-out: mean Cav,ss) of 6.27 to 192 ng/mL and a Cmax (both sexes, human, plasma, oral, Day 18, range over the 0.3 to 9 mg QD dose range, read-out: mean plasma Cmax,ss) of 7.86 to 243 ng/mL. It also gave an AUC(0-inf) [6] of 133 ng·h/mL, an AUC(0-t) [6] of 118 ng·h/mL and a Vd/F [6] of 121 L. It also gave an AUC(0-inf) [7] of 470 ng·h/mL, an AUC(0-t) [7] of 394 ng·h/mL and a Vd/F [7] of 133 L. It also gave an AUC(0-inf) [8] of 1870 ng·h/mL, an AUC(0-t) [8] of 1470 ng·h/mL and a Vd/F [8] of 126 L. For the same compound, the AUC(0-inf) [9] was 2330 ng·h/mL, the AUC(0-t) [9] was 1960 ng·h/mL and the Vd/F [9] was 145 L. The AUC(0-inf) [10] was 5760 ng·h/mL, the AUC(0-t) [10] was 4430 ng·h/mL and the Vd/F [10] was 119 L. The Tmax (both sexes, human, plasma, po, 9 mg, oral QD 0.3, 1, 3, 6, 9 mg, range over the dose range, read-out: median tmax) was 2.5 to 4 h and the attainment of steady-state (oral QD 0.3-9 mg from Day 6) was “appeared to reach steady-state on Day 18”.
